The source made the active and inactive calls.
Tests used:
[1] = system: HEK293; assay: PMA/Ionomycin induced NF-kB luciferase assay in 293- NF-kB-Luc stable cells. [Related pubchem assays: 1299, 1270, 1295, 1375, 1287, 1281, 1293, 1291, 1289, 1280, 465, 1364, 1282, 1372, 1365, 1370, 1367, 1366, 1269, 1373, 1292, 1290, 1302, 1371, 1283, 1271, 1294, 1374, 1368, 1369 ]; assay type: functional, cell-based; conditions: Homo sapiens
[2] = target: Luciferin 4-monooxygenase (Photinus pyralis, UniProt P08659); assay: In vitro luciferase assay using purified luciferase. [Related pubchem assays: 1299, 1270, 1295, 1375, 1287, 1281, 1293, 1291, 1289, 1280, 465, 1364, 1282, 1372, 1365, 1370, 1367, 1366, 1266, 1373, 1292, 1290, 1302, 1371, 1283, 1271, 1294, 1374, 1368, 1369 ]
Luciferin 4-monooxygenase, sequence (P08659 whole entry): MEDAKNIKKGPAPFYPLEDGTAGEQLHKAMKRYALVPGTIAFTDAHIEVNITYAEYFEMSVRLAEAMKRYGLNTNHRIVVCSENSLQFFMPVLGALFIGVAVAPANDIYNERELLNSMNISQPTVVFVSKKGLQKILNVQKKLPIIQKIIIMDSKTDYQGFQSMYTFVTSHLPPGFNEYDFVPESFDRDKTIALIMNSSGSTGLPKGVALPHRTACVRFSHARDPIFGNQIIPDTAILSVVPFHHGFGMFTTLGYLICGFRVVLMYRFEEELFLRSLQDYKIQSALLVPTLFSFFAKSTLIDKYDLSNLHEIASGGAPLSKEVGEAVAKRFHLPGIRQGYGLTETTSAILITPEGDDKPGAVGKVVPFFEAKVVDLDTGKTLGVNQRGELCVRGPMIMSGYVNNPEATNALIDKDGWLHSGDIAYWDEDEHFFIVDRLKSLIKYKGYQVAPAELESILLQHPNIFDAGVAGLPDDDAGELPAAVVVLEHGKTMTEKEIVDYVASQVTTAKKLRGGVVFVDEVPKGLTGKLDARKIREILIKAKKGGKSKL

[3] = system: HEK293; assay: Cytotoxicity assay in HEK293 cells. [Related pubchem assays (depositor defined):AID1266, AID1269, AID1270, AID1271, AID1280, AID1281, AID1282, AID1283, AID1287, AID1289, AID1290, AID1291, AID1292, AID1293, AID1294, AID1295, AID1299, AID1302, AID1364, AID1365, AID1366, AID1367, AID1369, AID1370, AID1371, AID1372, AID1373, AID1374, AID1375, AID1384 …; assay type: functional, cell-based; conditions: Homo sapiens
[4] = target: Voltage-dependent T-type calcium channel subunit alpha-1H (Homo sapiens, UniProt O95180); assay type: functional;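 also: channel activity triggered by adding a high calcium stimulation buffer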
[5] = target: Photoreceptor-specific nuclear receptor (Homo sapiens, UniProt Q9Y5X4); assay type: functional;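 also: potency for compounds that break the NR2E3 corepressor complex and count as activators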
Photoreceptor-specific nuclear receptor, sequence (Q9Y5X4 whole entry): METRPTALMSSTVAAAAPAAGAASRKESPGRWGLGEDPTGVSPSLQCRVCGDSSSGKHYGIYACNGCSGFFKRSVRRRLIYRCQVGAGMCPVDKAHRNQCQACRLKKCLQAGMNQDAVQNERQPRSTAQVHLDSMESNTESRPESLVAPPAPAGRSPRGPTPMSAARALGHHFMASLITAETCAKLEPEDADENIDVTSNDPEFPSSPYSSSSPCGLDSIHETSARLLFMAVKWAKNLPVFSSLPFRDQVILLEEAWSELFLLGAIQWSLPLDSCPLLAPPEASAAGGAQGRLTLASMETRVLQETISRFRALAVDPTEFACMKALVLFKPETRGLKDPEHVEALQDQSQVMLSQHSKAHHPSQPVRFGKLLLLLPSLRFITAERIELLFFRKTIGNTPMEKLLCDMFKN

[6] = target: Peroxisome proliferator-activated receptor gamma/Nuclear receptor corepressor 2 (Homo sapiens, UniProt P37231+Q9Y618); assay type: functional
Peroxisome proliferator-activated receptor gamma/Nuclear receptor corepressor 2, sequence (P37231 whole entry): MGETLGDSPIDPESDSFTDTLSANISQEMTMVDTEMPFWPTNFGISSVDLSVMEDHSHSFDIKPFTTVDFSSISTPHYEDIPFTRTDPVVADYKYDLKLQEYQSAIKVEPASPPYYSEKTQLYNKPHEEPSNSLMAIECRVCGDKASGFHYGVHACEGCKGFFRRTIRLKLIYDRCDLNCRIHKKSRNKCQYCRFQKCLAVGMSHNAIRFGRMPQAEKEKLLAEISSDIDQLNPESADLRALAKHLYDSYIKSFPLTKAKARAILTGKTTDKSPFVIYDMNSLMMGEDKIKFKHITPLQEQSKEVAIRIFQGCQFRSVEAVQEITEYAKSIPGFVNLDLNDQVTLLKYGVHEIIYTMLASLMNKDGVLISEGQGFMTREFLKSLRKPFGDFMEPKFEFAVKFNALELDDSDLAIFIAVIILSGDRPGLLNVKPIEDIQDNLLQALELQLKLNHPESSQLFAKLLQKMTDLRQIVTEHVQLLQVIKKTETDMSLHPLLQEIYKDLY
Peroxisome proliferator-activated receptor gamma/Nuclear receptor corepressor 2, sequence (Q9Y618 whole entry): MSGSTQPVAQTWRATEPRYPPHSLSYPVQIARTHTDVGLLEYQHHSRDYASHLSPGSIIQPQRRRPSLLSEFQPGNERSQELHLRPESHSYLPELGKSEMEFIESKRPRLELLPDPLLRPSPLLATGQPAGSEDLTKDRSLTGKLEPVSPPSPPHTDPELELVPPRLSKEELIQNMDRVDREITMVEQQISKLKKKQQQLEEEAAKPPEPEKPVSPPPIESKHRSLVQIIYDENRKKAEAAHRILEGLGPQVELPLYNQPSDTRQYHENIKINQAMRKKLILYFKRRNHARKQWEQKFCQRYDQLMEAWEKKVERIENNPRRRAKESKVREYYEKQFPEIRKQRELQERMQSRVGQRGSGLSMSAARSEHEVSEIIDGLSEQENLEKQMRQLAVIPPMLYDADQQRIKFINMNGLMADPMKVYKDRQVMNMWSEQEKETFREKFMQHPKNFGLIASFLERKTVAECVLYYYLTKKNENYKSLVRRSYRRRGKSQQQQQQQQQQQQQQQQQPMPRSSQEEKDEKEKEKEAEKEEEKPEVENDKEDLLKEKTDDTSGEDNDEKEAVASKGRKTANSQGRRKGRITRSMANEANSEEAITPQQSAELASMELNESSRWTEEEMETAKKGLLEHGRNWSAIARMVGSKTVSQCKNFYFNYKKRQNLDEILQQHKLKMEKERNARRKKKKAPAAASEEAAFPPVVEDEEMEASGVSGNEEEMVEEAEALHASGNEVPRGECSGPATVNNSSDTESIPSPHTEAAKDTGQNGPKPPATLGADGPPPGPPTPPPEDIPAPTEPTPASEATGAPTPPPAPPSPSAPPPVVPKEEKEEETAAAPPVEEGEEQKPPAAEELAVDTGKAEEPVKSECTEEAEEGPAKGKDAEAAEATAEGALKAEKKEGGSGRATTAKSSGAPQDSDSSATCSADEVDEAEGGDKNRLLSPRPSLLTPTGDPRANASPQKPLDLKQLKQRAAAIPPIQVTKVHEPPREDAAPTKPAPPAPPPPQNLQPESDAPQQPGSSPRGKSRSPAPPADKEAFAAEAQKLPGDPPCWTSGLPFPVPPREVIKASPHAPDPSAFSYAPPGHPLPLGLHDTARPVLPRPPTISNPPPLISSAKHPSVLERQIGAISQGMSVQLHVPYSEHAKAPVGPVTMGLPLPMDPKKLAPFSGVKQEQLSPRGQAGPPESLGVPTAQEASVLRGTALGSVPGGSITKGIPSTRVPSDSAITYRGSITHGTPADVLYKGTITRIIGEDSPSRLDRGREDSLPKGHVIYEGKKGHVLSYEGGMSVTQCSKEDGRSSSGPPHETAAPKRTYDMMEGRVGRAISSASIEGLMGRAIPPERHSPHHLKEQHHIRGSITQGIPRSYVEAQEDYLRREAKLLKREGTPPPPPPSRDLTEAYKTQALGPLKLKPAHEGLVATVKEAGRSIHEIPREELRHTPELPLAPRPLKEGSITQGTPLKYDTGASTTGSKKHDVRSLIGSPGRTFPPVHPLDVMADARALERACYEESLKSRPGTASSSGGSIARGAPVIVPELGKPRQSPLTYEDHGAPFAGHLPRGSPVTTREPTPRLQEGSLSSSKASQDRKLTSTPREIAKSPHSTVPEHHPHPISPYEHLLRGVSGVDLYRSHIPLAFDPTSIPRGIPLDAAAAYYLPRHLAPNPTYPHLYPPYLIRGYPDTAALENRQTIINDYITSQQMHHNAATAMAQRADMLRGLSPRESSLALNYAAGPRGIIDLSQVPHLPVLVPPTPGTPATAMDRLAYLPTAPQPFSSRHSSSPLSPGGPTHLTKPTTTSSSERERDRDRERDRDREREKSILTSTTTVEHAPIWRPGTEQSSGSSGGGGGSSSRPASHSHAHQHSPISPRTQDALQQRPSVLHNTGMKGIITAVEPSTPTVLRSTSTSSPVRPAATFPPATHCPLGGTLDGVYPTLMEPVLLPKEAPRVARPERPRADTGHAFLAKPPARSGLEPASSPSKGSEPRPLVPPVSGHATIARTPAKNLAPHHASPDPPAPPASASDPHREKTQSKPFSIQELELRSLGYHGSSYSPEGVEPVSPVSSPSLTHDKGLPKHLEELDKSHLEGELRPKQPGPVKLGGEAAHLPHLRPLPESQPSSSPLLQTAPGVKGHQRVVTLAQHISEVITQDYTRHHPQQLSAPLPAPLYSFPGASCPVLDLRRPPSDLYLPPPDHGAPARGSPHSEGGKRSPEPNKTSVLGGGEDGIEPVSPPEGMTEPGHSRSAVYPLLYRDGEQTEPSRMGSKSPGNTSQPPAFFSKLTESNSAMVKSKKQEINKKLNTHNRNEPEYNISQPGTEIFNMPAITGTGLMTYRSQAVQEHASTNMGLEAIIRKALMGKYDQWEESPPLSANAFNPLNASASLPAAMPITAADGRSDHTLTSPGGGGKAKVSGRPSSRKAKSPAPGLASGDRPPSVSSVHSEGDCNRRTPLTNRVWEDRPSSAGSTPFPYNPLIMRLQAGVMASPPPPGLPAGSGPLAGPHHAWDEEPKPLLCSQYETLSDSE

[7] = target: T1, Polyadenylate-binding protein 1 (Homo sapiens, UniProt P11940); assay: MLLE binding blockers, Cy5 peptide tracer – biochemical, fluorescence polarization, Cy5-PAM2 peptide, secondary, miRNA deadenylation inhibitor project, dose response (AID 602260); assay type: functional; conditions: read-out: IC50_Mean
T1 sequence (P11940 whole entry, the tested form may be a part): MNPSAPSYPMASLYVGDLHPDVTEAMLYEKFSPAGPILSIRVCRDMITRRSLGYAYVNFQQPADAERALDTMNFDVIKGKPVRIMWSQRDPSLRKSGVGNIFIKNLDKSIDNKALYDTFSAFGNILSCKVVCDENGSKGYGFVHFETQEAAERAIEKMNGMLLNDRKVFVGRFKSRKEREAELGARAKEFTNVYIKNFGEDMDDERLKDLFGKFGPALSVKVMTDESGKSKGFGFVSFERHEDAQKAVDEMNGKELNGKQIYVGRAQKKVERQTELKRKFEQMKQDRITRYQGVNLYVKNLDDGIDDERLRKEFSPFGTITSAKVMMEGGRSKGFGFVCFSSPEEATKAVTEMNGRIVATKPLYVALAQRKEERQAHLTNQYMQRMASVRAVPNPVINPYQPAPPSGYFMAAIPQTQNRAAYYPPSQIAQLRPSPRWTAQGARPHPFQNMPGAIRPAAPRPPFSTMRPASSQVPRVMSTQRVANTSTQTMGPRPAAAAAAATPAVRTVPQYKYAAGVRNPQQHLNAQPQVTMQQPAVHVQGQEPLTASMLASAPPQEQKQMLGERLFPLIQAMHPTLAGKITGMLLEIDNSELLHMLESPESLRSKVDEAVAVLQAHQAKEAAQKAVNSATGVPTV

[8] = target: T1, Polyadenylate-binding protein 1; assay: MLLE domain peptide-binding blockers, IC50 – biochemical, fluorescence polarization, FITC-PAM2 peptide, dose response (AID 602259); assay type: functional; conditions: read-out: IC50_Mean
[9] = system: HeLa; assay: viability loss in HeLa cells – cell-based, 24 h, cherry-picked samples, cytotoxicity control, dose response (AID 504726); assay type: functional; conditions: Homo sapiens;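 also: potency for cytotoxicity as loss of luminescence signal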
[10] = system: Salmon testes DNA; assay: acridine orange-DNA binding displacement – biochemical, fluorescence polarization, cherry-picked samples, set 2, artefact control for KSHV LANA DNA-binding inhibitor project, dose response (AID 504727); parameters: species or system Salmonidae
[11] = target: T2, ORF 73 (Human herpesvirus 8, UniProt O40947); assay: KSHV LANA DNA-binding disruption – biochemical, fluorescence polarization, cherry-picked samples, dose response (AID 504725); parameters: species or system Human gammaherpesvirus 8;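 also: fluorescence polarization of a labeled DNA duplex reporting LANA DNA binding; potency is for inhibitors that block LANA binding to the DNA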
T2 sequence (O40947 whole entry): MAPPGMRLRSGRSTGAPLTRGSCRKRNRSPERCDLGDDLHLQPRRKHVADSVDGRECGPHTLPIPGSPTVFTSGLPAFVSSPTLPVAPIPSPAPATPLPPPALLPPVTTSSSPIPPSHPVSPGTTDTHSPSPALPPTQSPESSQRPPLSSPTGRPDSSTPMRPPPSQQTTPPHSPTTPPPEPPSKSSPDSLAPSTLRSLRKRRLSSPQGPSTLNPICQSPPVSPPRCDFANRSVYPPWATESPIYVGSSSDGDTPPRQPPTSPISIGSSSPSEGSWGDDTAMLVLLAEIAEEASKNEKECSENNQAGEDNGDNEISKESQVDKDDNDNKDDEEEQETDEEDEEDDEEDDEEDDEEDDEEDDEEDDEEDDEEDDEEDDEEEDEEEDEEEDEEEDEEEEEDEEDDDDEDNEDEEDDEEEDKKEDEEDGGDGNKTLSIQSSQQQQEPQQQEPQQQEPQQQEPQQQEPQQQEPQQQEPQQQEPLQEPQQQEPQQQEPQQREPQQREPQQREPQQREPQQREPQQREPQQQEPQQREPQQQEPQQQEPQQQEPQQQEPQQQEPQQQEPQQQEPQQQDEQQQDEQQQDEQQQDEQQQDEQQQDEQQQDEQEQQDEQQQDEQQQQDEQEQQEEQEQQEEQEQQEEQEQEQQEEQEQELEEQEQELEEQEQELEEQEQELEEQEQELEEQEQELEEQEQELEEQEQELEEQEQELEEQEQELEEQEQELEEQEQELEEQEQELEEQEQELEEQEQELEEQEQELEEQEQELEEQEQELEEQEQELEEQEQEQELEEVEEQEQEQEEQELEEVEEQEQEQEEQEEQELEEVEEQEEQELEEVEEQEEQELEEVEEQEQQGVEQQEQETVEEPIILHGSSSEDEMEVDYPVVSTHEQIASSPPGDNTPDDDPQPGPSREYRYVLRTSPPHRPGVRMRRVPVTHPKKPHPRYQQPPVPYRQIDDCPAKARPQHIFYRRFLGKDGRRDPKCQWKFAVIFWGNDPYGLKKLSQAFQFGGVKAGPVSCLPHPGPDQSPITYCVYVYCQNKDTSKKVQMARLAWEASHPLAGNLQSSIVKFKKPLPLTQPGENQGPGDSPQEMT

[12] = target: T3, Endoribonuclease toxin MazF (Escherichia coli K-12, UniProt P0AE70); assay: activation of MazEF endoribonuclease cleavage – biochemical, fluorescence, single-stranded RNA substrate, uHTS hits, dose response (AID 588481); assay type: functional
T3 sequence (P0AE70 whole entry): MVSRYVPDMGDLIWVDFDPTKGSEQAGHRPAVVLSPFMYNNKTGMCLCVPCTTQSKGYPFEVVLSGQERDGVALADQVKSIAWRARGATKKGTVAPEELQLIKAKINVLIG

[13] = target: T3, Endoribonuclease toxin MazF; assay: substrate-only fluorescence increase artefacts – biochemical, single-stranded RNase substrate, counter-screen for MazEF activator project, dose response (AID 588502); assay type: functional
[14] = target: Dual specificity protein phosphatase 3 (Homo sapiens, UniProt P51452); assay: inhibition constants for human DUSP3 – biochemical, colorimetric, SAR follow-up (AID 2004)
Dual specificity protein phosphatase 3, sequence (P51452 whole entry): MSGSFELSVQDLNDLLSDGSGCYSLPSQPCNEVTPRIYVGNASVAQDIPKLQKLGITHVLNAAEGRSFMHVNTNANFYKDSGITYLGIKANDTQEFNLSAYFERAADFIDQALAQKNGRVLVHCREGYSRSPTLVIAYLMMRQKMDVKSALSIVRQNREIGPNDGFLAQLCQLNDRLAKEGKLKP

[15] = system: Streptococcus sp. 'group A'; assay: Streptococcus pyogenes SK(-)GAS viability under kanamycin – luminescence, BacTiterGlo, confirmation, counter-screen for streptokinase expression inhibitor project, dose response (AID 1900); assay type: functional, organism-based
[16] = HPDE-C7 pancreatic duct cell viability loss – fluorescence, HTS (AID 430); assay type: functional, cell-based; conditions: Homo sapiens
[17] = viability loss of HPDE-C7K cells – cell-based, fluorescence, HTS, primary screen (AID 431); assay type: functional; conditions: Homo sapiens
[18] = system: Streptococcus; assay: GAS UMAA2166 growth inhibition – luminescence, BacTiterGlo, counter-screen for streptokinase expression inhibitor project, dose response (AID 1915); assay type: functional, organism-based;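 also: potency for reduction of bacterial viability or growth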
[19] = target: X-box-binding protein 1 (Homo sapiens, UniProt P17861); assay type: functional, Cricetulus griseus;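 also: confirmatory dose-response counter-screen serving a CHOP assay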
X-box-binding protein 1, sequence (P17861 whole entry): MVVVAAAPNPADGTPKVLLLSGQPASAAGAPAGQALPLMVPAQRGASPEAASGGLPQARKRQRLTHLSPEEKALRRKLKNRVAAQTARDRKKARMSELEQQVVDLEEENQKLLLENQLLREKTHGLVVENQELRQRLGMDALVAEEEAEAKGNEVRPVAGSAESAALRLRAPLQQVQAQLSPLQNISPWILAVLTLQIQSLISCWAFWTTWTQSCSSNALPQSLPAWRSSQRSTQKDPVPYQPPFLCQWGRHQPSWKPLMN

SMILES: Cc1csc(NC(=O)c2sc3nc(-c4cccs4)ccc3c2N)n1
- EC50 [1]: 15.8 µM (not active)
- EC50 [2]: > 8 µM (not active)
- EC50 [3]: > 8 µM (inactive)
- EC50 [4]: 6.54 µM (active)

SMILES: COc1cccc(NC(=S)Nc2cc(C)cc(C)n2)c1
- IC50 [5]: 2.04 µM (active)
- IC50 [6]: 1.61 µM (active)
- IC50 [7]: > 66 µM (inactive)
- IC50 [8]: > 66 µM (inactive)

SMILES: COc1ccc(-c2cc(C(F)(F)F)c3c(N)c(C(=O)NCCSC)sc3n2)cc1
- AC50 [9]: 45.9 µM (active)
- AC50 [10]: 58.9 µM (active)
- AC50 [11]: 34.5 µM (active)
- EC50 [12]: > 99 µM (inactive)
- EC50 [13]: 61.6 µM (inactive)

SMILES: CCOC(=O)c1sc(N/N=C/c2cccc(O)c2)nc1C
- Ki [14]: 120 µM (inactive)

SMILES: O=C1c2n[nH]c(-c3ccccc3O)c2C(c2cccc(Cl)c2)N1Cc1ccco1 (centres undefined)
- EC50 [15]: 6.78 µM (active)
- EC50 [16]: 7.07 µM (active)
- EC50 [17]: 9.83 µM (active)
- EC50 [18]: > 150 µM (inconclusive)
- Absolute IC50 (XBP1) [19]: 10 µM

— ChEMBL document CHEMBL1201862, “PubChem BioAssay data set” (2004)
